These are literature values, as cited in patent EP3735959A1, “COMPOSITIONS TO REDUCE HYPERPIGMENTATION” (InnovativeHealth Group SL, priority 2019, dated 2020).

The test system of this series is human epidermal melanocytes.

Take `C=C(C)[C@@H]1CCC(C)=C[C@H]1c1c(O)cc(CCCCC)cc1O` [CBD, Cannabidiol]: the melanogenesis entry (6 µM, by increasing the expression of MITF (reference 6)) is listed as “induced melanogenesis”. Besides, the cellular tyrosinase activity entry (human epidermal melanocytes, concentration dependent (reference 6)) was “significantly increased”.
